pIC50: −log10 of the molar value. Like-named read-outs stand apart in the source and are kept apart here. Values belong to the molecule of their own block, whether it stands above or below them.
Assays:
[1] = target: T1, baculovirus-expressed ALK (Homo sapiens, UniProt Q9UM73); test: ALK Kinase Assay (ELISA-type, time-resolved fluorescence); format: biochemical
T1 construct: host or cells: baculovirus expression system
Procedure, shortened: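 Plates coated with phospholipase C-γ substrate (10 μg/mL in TBS); reaction started with 30 ng/ml ALK and run 15 min at 37° C. Phosphorylated substrate detected with Eu-N1-labeled PT66 antibody. IC50 from sigmoidal variable-slope fit of percent inhibition vs log concentration.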

[2] = target: T2, c-Met (cytoplasmic domain) (Homo sapiens, UniProt P08581); test: c-Met Kinase Assay (same methods as for ALK, with modifications); format: biochemical
T2 construct: 10 ng/mL c-Met (cytoplasmic domain, Invitrogen Corporation #PV3143); purchased Invitrogen Corporation PV3143
T2 sequence (P08581 956-1390 limits assumed): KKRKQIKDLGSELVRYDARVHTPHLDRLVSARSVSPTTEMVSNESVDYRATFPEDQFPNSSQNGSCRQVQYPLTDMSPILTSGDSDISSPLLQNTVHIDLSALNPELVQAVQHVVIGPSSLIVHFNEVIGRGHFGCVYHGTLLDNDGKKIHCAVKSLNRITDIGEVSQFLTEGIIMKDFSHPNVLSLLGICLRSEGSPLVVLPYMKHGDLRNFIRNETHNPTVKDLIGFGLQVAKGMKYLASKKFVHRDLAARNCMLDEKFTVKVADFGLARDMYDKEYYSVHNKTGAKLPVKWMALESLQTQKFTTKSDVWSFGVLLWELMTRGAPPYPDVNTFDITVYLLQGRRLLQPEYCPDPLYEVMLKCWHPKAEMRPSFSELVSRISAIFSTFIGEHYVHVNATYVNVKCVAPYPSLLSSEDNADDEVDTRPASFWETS
Procedure, shortened: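 Europium-labeled PT66 antibody (Eu-N1) detects substrate phosphorylation on wells coated with phospholipase C-γ at 10 μg/mL. The kinase, the cytoplasmic domain of c-Met at 10 ng/mL, starts the reaction, which proceeds 15 minutes at 37° C.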

[3] = 1 μM ATP (Km level), read-out: ALK Activity (ALK Kinase Inhibition, IC50)
[4] = 1 μM ATP (Km level), read-out: cMet Activity (c-Met Kinase Inhibition, IC50)
[5] = ALK kinase inhibition, 1 μM ATP (Km level), read-out: ALK Activity
[6] = c-Met kinase inhibition, 1 μM ATP (Km level), read-out: cMet Activity
[7] = 1 μM ATP (Km level), 30 ng/ml ALK, 37° C., 15 minutes, read-out: ALK Activity (ALK kinase inhibition, IC50 class)
[8] = 1 μM ATP (Km level), 10 ng/mL c-Met, read-out: cMet Activity (c-Met kinase inhibition, IC50 class)
[9] = ALK kinase inhibition, 1 μM ATP, read-out: ALK Activity
[10] = c-Met kinase inhibition, 1 μM ATP, read-out: cMet Activity

T1 sequence (Q9UM73 19-1620): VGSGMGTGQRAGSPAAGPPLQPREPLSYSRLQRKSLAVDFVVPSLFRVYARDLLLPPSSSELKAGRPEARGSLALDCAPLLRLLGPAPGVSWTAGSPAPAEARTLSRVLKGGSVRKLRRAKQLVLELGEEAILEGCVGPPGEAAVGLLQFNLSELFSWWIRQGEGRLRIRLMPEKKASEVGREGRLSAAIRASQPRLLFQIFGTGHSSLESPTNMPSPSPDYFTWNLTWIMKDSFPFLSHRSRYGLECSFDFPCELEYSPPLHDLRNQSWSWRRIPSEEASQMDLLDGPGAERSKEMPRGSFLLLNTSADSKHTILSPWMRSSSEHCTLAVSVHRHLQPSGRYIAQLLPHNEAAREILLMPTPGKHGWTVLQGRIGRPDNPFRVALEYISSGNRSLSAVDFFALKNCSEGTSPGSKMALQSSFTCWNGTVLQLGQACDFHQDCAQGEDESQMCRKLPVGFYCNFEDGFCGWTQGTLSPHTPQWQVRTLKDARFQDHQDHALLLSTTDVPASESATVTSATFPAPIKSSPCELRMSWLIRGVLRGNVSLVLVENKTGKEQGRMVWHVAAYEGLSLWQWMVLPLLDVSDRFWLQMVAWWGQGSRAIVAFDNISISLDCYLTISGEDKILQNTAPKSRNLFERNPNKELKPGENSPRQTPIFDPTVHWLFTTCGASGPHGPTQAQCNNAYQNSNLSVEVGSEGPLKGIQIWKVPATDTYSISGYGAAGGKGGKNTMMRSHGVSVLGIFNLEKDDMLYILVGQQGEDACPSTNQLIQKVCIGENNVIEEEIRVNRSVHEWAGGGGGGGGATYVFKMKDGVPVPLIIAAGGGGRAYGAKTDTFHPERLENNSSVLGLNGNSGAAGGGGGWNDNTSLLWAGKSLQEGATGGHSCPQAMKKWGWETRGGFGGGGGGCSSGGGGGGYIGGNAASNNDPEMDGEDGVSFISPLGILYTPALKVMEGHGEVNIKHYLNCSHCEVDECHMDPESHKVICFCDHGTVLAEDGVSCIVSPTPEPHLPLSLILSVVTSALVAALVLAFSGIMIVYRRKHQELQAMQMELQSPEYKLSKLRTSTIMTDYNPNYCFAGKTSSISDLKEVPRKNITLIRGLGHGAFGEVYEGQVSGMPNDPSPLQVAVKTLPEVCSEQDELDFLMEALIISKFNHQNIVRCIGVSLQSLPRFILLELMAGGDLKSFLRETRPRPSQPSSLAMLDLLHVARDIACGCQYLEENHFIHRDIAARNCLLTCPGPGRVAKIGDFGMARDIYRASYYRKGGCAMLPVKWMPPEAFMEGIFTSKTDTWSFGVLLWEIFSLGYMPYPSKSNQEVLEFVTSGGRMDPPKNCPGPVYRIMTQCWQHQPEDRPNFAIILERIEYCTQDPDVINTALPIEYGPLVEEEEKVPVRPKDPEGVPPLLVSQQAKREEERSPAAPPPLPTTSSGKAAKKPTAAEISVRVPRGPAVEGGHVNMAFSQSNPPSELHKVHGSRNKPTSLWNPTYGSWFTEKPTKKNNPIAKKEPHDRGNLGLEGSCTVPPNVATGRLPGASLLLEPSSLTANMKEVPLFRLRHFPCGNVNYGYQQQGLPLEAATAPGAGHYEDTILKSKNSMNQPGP

SMILES: COc1cc2c(cc1Nc1ncc(Cl)c(N[C@@H]3CCCC[C@H]3NS(C)(=O)=O)n1)N(C)C(=O)CN(CC1CC1)C2 [Example 746, N-{(1R,2R)-2-[5-Chloro-2-(4-cyclopropylmethyl-7-methoxy-1-methyl-2-oxo-2,3,4,5-tetrahydro-1H-benzo[e][1,4]diazepin-8-ylamino)-pyrimidin-4-ylamino]-cyclohexyl}-methanesulfonamide]
pIC50 [1, 3]: 6.00 to 7.00
pIC50 [2, 4]: < 5.00

SMILES: COc1cc2c(cc1Nc1ncc(Cl)c(Nc3ccc(OC)c4c3C(=O)N(C)C4)n1)CCN(CC(=O)N(C)C)CC2 [Example 937, 2-{7-[5-Chloro-4-(7-methoxy-2-methyl-3-oxo-2,3-dihydro-1H-isoindol-4-ylamino)-pyrimidin-2-ylamino]-8-methoxy-1,2,4,5-tetrahydro-3-benzazepin-3-yl}-N,N-dimethyl-acetamide]
pIC50 [1, 3]: > 7.00
pIC50 [2, 4]: < 5.00

SMILES: C#CCNc1nc(Nc2ccc3c(c2)CCN(CC)CC3)ncc1Cl [Example 153, 5-Chloro-N*2*-(3-ethyl-2,3,4,5-tetrahydro-1H-benzo[d]azepin-7-yl)-N*4*-prop-2-ynyl-pyrimidine-2,4-diamine]
pIC50 [1, 5]: 5.00 to 6.00
pIC50 [2, 6]: 5.00 to 6.00

SMILES: COc1cc2c(cc1Nc1ncc(Cl)c(N[C@@H]3CCCC[C@H]3NS(C)(=O)=O)n1)CCC(NCC(F)F)CC2 (single isomer, unassigned) [Example 1058]
pIC50 [1, 7]: > 7.00
pIC50 [2, 8]: < 5.00

SMILES: COc1cc2c(cc1Nc1ncc(Cl)c(N[C@H]3[C@@H](C(N)=O)[C@@H]4C=C[C@H]3C4)n1)CCN(CCN1CCOCC1)CC2 [Example 1529, (1S,2S,3R,4R)-3-{5-Chloro-2-[8-methoxy-3-(2-morpholin-4-yl-ethyl)-2,3,4,5-tetrahydro-1H-3-benzazepin-7-ylamino]-pyrimidin-4-ylamino}-bicyclo[2.2.1]hept-5-ene-2-carboxylic acid amide]
pIC50 [1, 9]: > 7.00
pIC50 [2, 10]: < 5.00

SMILES: COc1cc2c(cc1Nc1ncc(Cl)c(Nc3ccc(N(C)C)cc3OC)n1)CCN(CC(=O)N(C)C)CC2 [Example 1166, 2-{7-[5-Chloro-4-(4-dimethylamino-2-methoxy-phenylamino)-pyrimidin-2-ylamino]-8-methoxy-1,2,4,5-tetrahydro-benzo[d]azepin-3-yl}-N,N-dimethyl-acetamide]
pIC50 [1, 7]: > 7.00
pIC50 [2, 8]: < 5.00

SMILES: COCCN1CCc2ccc(Nc3ncc(Cl)c(Nc4c(F)cccc4OCCCOCc4ccccc4)n3)cc2CC1 [Example 1284, N(4)-[2-(3-Benzyloxy-propoxy)-6-fluoro-phenyl]-5-chloro-N(2)-[3-(2-methoxy-ethyl)-2,3,4,5-tetrahydro-1H-3-benzazepin-7-yl]-pyrimidine-2,4-diamine]
pIC50 [1, 7]: 6.00 to 7.00
pIC50 [2, 8]: 5.00 to 6.00

SMILES: CCN1C(=O)CCC(C)(C)c2ccc(Nc3ncc(Cl)c(Nc4ccc(N(C)C)cc4S(=O)(=O)N(C)C)n3)cc21 [Example 850, 2-[5-Chloro-2-(1-ethyl-5,5-dimethyl-2-oxo-2,3,4,5-tetrahydro-1H-benzo[b]azepin-8-ylamino)-pyrimidin-4-ylamino]-5-dimethylamino-N,N-dimethyl-benzenesulfonamide]
pIC50 [1, 3]: > 7.00
pIC50 [2, 4]: 6.00 to 7.00

SMILES: C=CCOc1cc(N2CCOCC2)cc(F)c1Nc1nc(Nc2ccc3c(c2)CCOC(=O)N3C)ncc1Cl [Example 1700, 2-[4-(2-Allyloxy-6-fluoro-4-morpholin-4-yl-phenylamino)-5-chloro-pyrimidin-2-ylamino]-5-methyl-8,9-dihydro-5H-7-oxa-5-aza-benzocyclohepten-6-one]
pIC50 [1, 9]: > 7.00
pIC50 [2, 10]: 5.00 to 6.00

More lines, now with the values ahead:

pIC50 [1, 5]: > 7.00
pIC50 [2, 6]: 5.00 to 6.00
SMILES: CCN1CCc2cc(Nc3ncc(Cl)c(Nc4ccccc4C(=O)NC)n3)c(OC)cc2CC1=O [Example 253, 2-[5-Chloro-2-(3-ethyl-8-methoxy-2-oxo-2,3,4,5-tetrahydro-1H-benzo[d]azepin-7-ylamino)-pyrimidin-4-ylamino]-N-methyl-benzamide]

pIC50 [1, 5]: > 7.00
pIC50 [2, 6]: 6.00 to 7.00
SMILES: COCCN1CCc2ccc(Nc3ncc(Cl)c(Nc4ccccc4-c4ncc[nH]4)n3)cc2CC1 [Example 221, 5-Chloro-N*4*-[2-(1H-imidazol-2-yl)-phenyl]-N*2*-[3-(2-methoxy-ethyl)-2,3,4,5-tetrahydro-1H-benzo[d]azepin-7-yl]-pyrimidine-2,4-diamine]

pIC50 [1, 9]: < 5.00
pIC50 [2, 10]: < 5.00
SMILES: CCN1CCNC(=O)c2ccc(Nc3ncc(Cl)c(Nc4ccccc4OCCN4CCOCC4)n3)cc21 [Example 1455, 8-{5-Chloro-4-[2-(2-morpholin-4-yl-ethoxy)-phenylamino]-pyrimidin-2-ylaminol}-1-ethyl-1,2,3,4-tetrahydro-benzo[e][1,4]diazepin-5-one]

pIC50 [1, 5]: > 7.00
pIC50 [2, 6]: 5.00 to 6.00
SMILES: CCOCn1ccnc1-c1ccccc1Nc1nc(Nc2ccc3c(c2)CCN(CCOC)CC3)ncc1Cl [Example 222, 5-Chloro-N*4*-[2-(1-ethoxymethyl-1H-imidazol-2-yl)-phenyl]-N*2*-[3-(2-methoxy-ethyl)-2,3,4,5-tetrahydro-1H-benzo[d]azepin-7-yl]-pyrimidine-2,4-diamine]

pIC50 [1, 5]: > 7.00
pIC50 [2, 6]: > 7.00
SMILES: CNC(=O)c1ccccc1Nc1nc(Nc2ccc3c(c2)C2CCC3CN(CCF)C2)ncc1Cl (centres unmarked) [Example 280, 2-{5-Chloro-2-[10-(2-fluoro-ethyl)-10-aza-tricyclo[6.3.2.0*2,7*]trideca-2,4,6-trien-4-ylamino]-pyrimidin-4-ylamino}-N-methyl-benzamide]

pIC50 [1, 9]: 6.00 to 7.00
pIC50 [2, 10]: > 7.00
SMILES: CNC(=O)c1cc(F)cc(F)c1Nc1nc(Nc2ccc3c(c2)N(C(C)=O)CCCC3(C)C)ncc1Cl [Example 1608, 2-[2-(1-Acetyl-5,5-dimethyl-2,3,4,5-tetrahydro-1H-benzo[b]azepin-8-ylamino)-5-chloro-pyrimidin-4-ylamino]-3,5-difluoro-N-methyl-benzamide]

pIC50 [1, 9]: > 7.00
pIC50 [2, 10]: 5.00 to 6.00
SMILES: COc1cc2c(cc1Nc1ncc(Cl)c(Nc3ccccc3S(=O)(=O)N(C)C)n1)CCN(CCOC(=O)[C@@H](N)C(C)C)CC2 [Example 1544, (S)-2-Amino-3-methyl-butyric acid 2-{7-[5-chloro-4-(2-dimethylsulfamoyl-phenylamino)-pyrimidin-2-ylamino]-8-methoxy-1,2,4,5-tetrahydro-3-benzazepin-3-yl}-ethyl ester]

pIC50 [1, 5]: > 7.00
pIC50 [2, 6]: 5.00 to 6.00
SMILES: CNC(=O)c1ccccc1Nc1nc(Nc2ccc3c(c2OC)CCCC(=O)N3CCOC)ncc1Cl [Example 126, 2-{5-Chloro-2-[6-methoxy-1-(2-methoxy-ethyl)-2-oxo-2,3,4,5-tetrahydro-1H-benzo[b]azepin-7-ylamino]-pyrimidin-4-ylamino}-N-methyl-benzamide]

pIC50 [1, 3]: > 7.00
pIC50 [2, 4]: < 5.00
SMILES: COc1cc2c(cc1Nc1ncc(Cl)c(Nc3ccccc3S(=O)(=O)N(C)C)n1)CCN(C(=O)C1COCCO1)CC2 (centres unmarked) [Example 634, 2-{5-Chloro-2-[3-([1,4]dioxane-2-carbonyl)-8-methoxy-2,3,4,5-tetrahydro-1H-benzo[d]azepin-7-ylamino]-pyrimidin-4-ylamino}-N,N-dimethyl-benzenesulfonamide]

pIC50 [1, 3]: > 7.00
pIC50 [2, 4]: < 5.00
SMILES: CNC(=O)c1ccccc1Nc1nc(Nc2cccc3c2N(C)CCNC3=O)ncc1Cl [Example 544, 2-[5-Chloro-2-(1-methyl-5-oxo-2,3,4,5-tetrahydro-1H-benzo[e][1,4]diazepin-9-ylamino)pyrimidin-4-ylamino]-N-methyl-benzamide]
